{"source": "patent US11000033B2", "about": "“Ketone or oxime compound, and herbicide” (NISSAN CHEMICAL CORPORATION, priority 2014, dated 2021)", "format_in_all_cases": "in vivo", "key": {"Scirpus juncoides": {"tested_on": "Scirpus juncoides", "assay": "Test Example 1: herbicidal activity, application before weed generation in submerged conditions (symbol B)", "conditions": "application herbicide amount 320 g/ha", "how_it_was_run": "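Ratings (5: ≥90%, near complete withering; 4: 70–<90%; 3: 40–<70%; 2: 20–<40%; 1: 5–<20%; 0: ≤5%) were assigned 3 weeks after the diluted emulsion was applied to the water surface of freshly sown, submerged pots.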"}, "Monochoria vaginalis": {"tested_on": "Monochoria vaginalis", "assay": "Test Example 2: herbicidal activity, application during weed generation in submerged conditions (symbol C)", "conditions": "Table 23; application herbicide amount 320 g/ha; grade 0-5 by criteria of Test Example 1", "how_it_was_run": "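Alluvial soil in pots was flooded to a 4 cm water depth and sown with a mix of the three weed species, then grown in a greenhouse at 25° C. to 30° C. At the one- to two-leaf stage, an emulsifiable formulation diluted in water to a set dose was applied to the water surface. Effects were scored visually 3 weeks later.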"}, "Setaria viridis [1]": {"tested_on": "Setaria viridis", "assay": "Test Example 4: herbicidal effect by soil treatment (symbol G)", "conditions": "application herbicide amount 320 g/ha", "how_it_was_run": "(§1)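 Seeds were sown in sterilized diluvial soil, covered with about 1.5 cm of soil, and the soil surface was sprayed with a water-diluted emulsion of the compound at a predetermined rate. Plants grew in a greenhouse at 25° C. to 30° C.; effects were scored visually 3 weeks after application.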"}, "Avena fatua [2]": {"tested_on": "Avena fatua", "assay": "Test Example 4: herbicidal effect by soil treatment (symbol I)", "conditions": "application herbicide amount 320 g/ha", "how_it_was_run": "as §1"}, "Apera spica-venti [3]": {"tested_on": "Apera spica-venti", "assay": "Test Example 4: herbicidal effect by soil treatment (symbol L)", "conditions": "application herbicide amount 320 g/ha", "how_it_was_run": "as §1"}, "Veronica persica [4]": {"tested_on": "Veronica persica", "assay": "Test Example 4: herbicidal effect by soil treatment (symbol R)", "conditions": "application herbicide amount 320 g/ha", "how_it_was_run": "as §1"}, "rice": {"tested_on": "rice", "assay": "Test Example 4: effect on crop by soil treatment (symbol b)", "conditions": "application herbicide amount 320 g/ha", "how_it_was_run": "(§2)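 Seeds were sown in spots on sterilized diluvial soil in a plastic box and covered with about 1.5 cm of soil. Plants were then grown in a greenhouse at 25° C. to 30° C.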"}, "rapeseed [5]": {"tested_on": "rapeseed", "assay": "Test Example 4: effect on crop by soil treatment (symbol g)", "conditions": "application herbicide amount 320 g/ha", "how_it_was_run": "as §2"}, "Digitaria ciliaris": {"tested_on": "Digitaria ciliaris", "assay": "Test Example 5: herbicidal effect by foliage application, plastic box (symbol F)", "conditions": "320 g/ha, 3 weeks after application", "how_it_was_run": "(§3)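 Effect is rated 3 weeks after a foliar spray of water-diluted emulsion concentrate at a predetermined herbicide amount. Plants had grown 14 days in a 25° C. to 30° C. greenhouse from seed in sterilized diluvial soil.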"}, "Setaria viridis [6]": {"tested_on": "Setaria viridis", "assay": "Test Example 5: herbicidal effect by foliage application, plastic box (symbol G)", "conditions": "320 g/ha, 3 weeks after application", "how_it_was_run": "as §3"}, "[7]": {"tested_on": "Echinochloa crus-galli var. crus-galli", "assay": "Test Example 5: herbicidal effect by foliage application, plastic box (symbol H)", "conditions": "320 g/ha, 3 weeks after application", "how_it_was_run": "as §3"}, "Avena fatua [8]": {"tested_on": "Avena fatua", "assay": "Test Example 5: herbicidal effect by foliage application, plastic box (symbol I)", "conditions": "320 g/ha, 3 weeks after application", "how_it_was_run": "as §3"}, "Apera spica-venti [9]": {"tested_on": "Apera spica-venti", "assay": "Test Example 5: herbicidal effect by foliage application, plastic box (symbol L)", "conditions": "320 g/ha, 3 weeks after application", "how_it_was_run": "as §3"}, "Abutilon theophrasti": {"tested_on": "Abutilon theophrasti", "assay": "Test Example 5: herbicidal effect by foliage application, plastic box (symbol M)", "conditions": "320 g/ha, 3 weeks after application", "how_it_was_run": "as §3"}, "Chenopodium album": {"tested_on": "Chenopodium album", "assay": "Test Example 5: herbicidal effect by foliage application, plastic box (symbol O)", "conditions": "320 g/ha, 3 weeks after application", "how_it_was_run": "as §3"}, "Veronica persica [10]": {"tested_on": "Veronica persica", "assay": "Test Example 5: herbicidal effect by foliage application, plastic box (symbol R)", "conditions": "320 g/ha, 3 weeks after application", "how_it_was_run": "as §3"}, "soybean": {"tested_on": "soybean", "assay": "Test Example 5: effect on crop by foliage application, plastic box (symbol d)", "conditions": "320 g/ha, 3 weeks after application", "how_it_was_run": "(§4)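 Seeds were sown in spots in sterilized diluvial soil held in a plastic box 21 cm × 13 cm × 7 cm deep, covered with about 1.5 cm of soil, and grown in a greenhouse at 25° C. to 30° C.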"}, "rapeseed [11]": {"tested_on": "rapeseed", "assay": "Test Example 5: effect on crop by foliage application, plastic box (symbol g)", "conditions": "320 g/ha, 3 weeks after application", "how_it_was_run": "as §4"}}, "data": [{"smiles": "CON=C(CC1CC(O)=C(c2c(C)cc(C#C[Si](C)(C)C)cc2C)C1=O)C(C)C", "note": "(stereo not drawn) [9-005]", "values": [{"measurement": "Herbicidal effect grade, B: Scirpus juncoides", "setting": "Scirpus juncoides", "value": "0 (Herbicidal ratio of 5% or lower (almost no effect))"}, {"measurement": "Herbicidal effect grade, C: Monochoria vaginalis", "setting": "Monochoria vaginalis", "value": "0 (Herbicidal ratio of 5% or lower (almost no effect))"}, {"measurement": "Herbicidal effect grade, G: Setaria viridis", "setting": "Setaria viridis [1]", "value": "0 (Herbicidal ratio of 5% or lower (almost no effect))"}, {"measurement": "Herbicidal effect grade, I: Avena fatua", "setting": "Avena fatua [2]", "value": "0 (Herbicidal ratio of 5% or lower (almost no effect))"}, {"measurement": "Herbicidal effect grade, L: Apera spica-venti", "setting": "Apera spica-venti [3]", "value": "1 (Herbicidal ratio of 5% or higher and lower than 20%)"}, {"measurement": "Herbicidal effect grade, R: Veronica persica", "setting": "Veronica persica [4]", "value": "0 (Herbicidal ratio of 5% or lower (almost no effect))"}, {"measurement": "Effect on crop grade, b: directly sowed rice plant", "setting": "rice", "value": "1 (Herbicidal ratio of 5% or higher and lower than 20%)"}, {"measurement": "Effect on crop grade, g: rapeseed", "setting": "rapeseed [5]", "value": "0 (Herbicidal ratio of 5% or lower (almost no effect))"}, {"measurement": "F: Digitaria ciliaris, herbicidal effect grade", "setting": "Digitaria ciliaris", "value": "4 (Herbicidal ratio of 70% or higher and lower than 90%)"}, {"measurement": "G: Setaria viridis, herbicidal effect grade", "setting": "Setaria viridis [6]", "value": "4 (Herbicidal ratio of 70% or higher and lower than 90%)"}, {"measurement": "H: Echinochloa crus-galli var. crus-galli, herbicidal effect grade", "setting": "[7]", "value": "5 (Herbicidal ratio of 90% or more (almost completely withered))"}, {"measurement": "I: Avena fatua, herbicidal effect grade", "setting": "Avena fatua [8]", "value": "5 (Herbicidal ratio of 90% or more (almost completely withered))"}, {"measurement": "L: Apera spica-venti, herbicidal effect grade", "setting": "Apera spica-venti [9]", "value": "5 (Herbicidal ratio of 90% or more (almost completely withered))"}, {"measurement": "M: Abutilon theophrasti, herbicidal effect grade", "setting": "Abutilon theophrasti", "value": "0 (Herbicidal ratio of 5% or lower (almost no effect))"}, {"measurement": "O: Chenopodium album, herbicidal effect grade", "setting": "Chenopodium album", "value": "0 (Herbicidal ratio of 5% or lower (almost no effect))"}, {"measurement": "R: Veronica persica, herbicidal effect grade", "setting": "Veronica persica [10]", "value": "0 (Herbicidal ratio of 5% or lower (almost no effect))"}, {"measurement": "d: soybean, effect on crop grade", "setting": "soybean", "value": "0 (Herbicidal ratio of 5% or lower (almost no effect))"}, {"measurement": "g: rapeseed, effect on crop grade", "setting": "rapeseed [11]", "value": "3 (Herbicidal ratio of 40% or higher and lower than 70%)"}]}]}
